In ChEMBL document CHEMBL3526001, “Attenuation of intestinal absorption by major efflux transporters: quantitative tools and strategies using a Caco-2 model” (Drug Metab Dispos, 2011):

What was measured:
clinical = details: human, in vivo
Description: Fraction absorbed in human

in vitro [1] = details: human, Caco-2
in vitro [2] = details: human, Caco-2; remark: listed apart in the source
in vitro [3] = details: human, Caco-2; remark: listed apart in the source
P-gp = assay: in vitro; details: human

SMILES | Fa (clinical) [%] | Papp A→B at 2 h, 10 µM (in vitro [1]) [×10⁻⁶ cm/s] | Papp B→A at 2 h, 10 µM (in vitro [2]) [×10⁻⁶ cm/s] | efflux ratio at 2 h, 10 µM (in vitro [3]) | efflux ratio at 2 h, 10 µM (P-gp; Caco-2) | efflux ratio at 2 h, 10 µM (P-gp; Caco-2, with LY335979 1 uM)
CCCCC(=O)N(Cc1ccc(-c2ccccc2-c2nnn[nH]2)cc1)[C@H](C(=O)O)C(C)C | 25 | 0.4 | 1.7 | 4.1 | 2.9 | 
CC(C)CN(C[C@@H](O)[C@H](Cc1ccccc1)NC(=O)O[C@H]1CCOC1)S(=O)(=O)c1ccc(N)cc1 | 70 | 8 |  |  |  | 
CNS(=O)(=O)Cc1ccc2[nH]cc(CCN(C)C)c2c1 |  | 1.5 | 2.2 | 1.4 |  | 0.5
O=C(O)CN(CCN(CC(=O)O)Cc1ccccc1O)Cc1ccccc1O |  | 0.02 | 0.04 | 2.1 |  | 2
CC(C)(C)NC(=O)[C@@H]1CN(Cc2cccnc2)CCN1C[C@@H](O)C[C@@H](Cc1ccccc1)C(=O)N[C@H]1c2ccccc2C[C@H]1O.O | 63 | 2.4 | 22.8 | 9.7 | 0.8 | 
Cc1c(O)cccc1C(=O)N[C@@H](CSc1ccccc1)[C@H](O)CN1C[C@H]2CCCC[C@H]2C[C@H]1C(=O)NC(C)(C)C | 3 | 0.7 | 1.7 | 2.5 |  | 0.7
CCCC(=O)Nc1ccc(OCC(O)CNC(C)C)c(C(C)=O)c1 (stereo unspecified) [ACEBUTOLOL] | 70 | 1.1 | 4.1 | 3.6 | 1 | 
COCc1c(C(C)C)nc(C(C)C)c(/C=C/[C@@H](O)C[C@@H](O)CC(=O)O)c1-c1ccc(F)cc1 [CERIVASTATIN] | 98 |  |  |  |  | 
O=C(O)COCCN1CCN(C(c2ccccc2)c2ccc(Cl)cc2)CC1 (stereo unspecified) [CETIRIZINE] | 66 |  |  |  |  | 
CCN(CC)CCCC(C)Nc1ccnc2cc(Cl)ccc12 (stereo unspecified) [CHLOROQUINE] | 89 |  |  |  |  | 
CC[C@H]1OC(=O)[C@H](C)[C@@H](O[C@H]2C[C@@](C)(OC)[C@@H](O)[C@H](C)O2)[C@H](C)[C@@H](O[C@@H]2O[C@H](C)C[C@H](N(C)C)[C@H]2O)[C@](C)(OC)C[C@@H](C)C(=O)[C@H](C)[C@@H](O)[C@]1(C)O [CLARITHROMYCIN] | 50 | 3.5 | 18 | 5.1 | 0.8 | 
OCCN(CCO)c1nc(N2CCCCC2)c2nc(N(CCO)CCO)nc(N3CCCCC3)c2n1 [DIPYRIDAMOLE] | 66 |  |  |  |  | 
OC(Cn1cncn1)(Cn1cncn1)c1ccc(F)cc1F [FLUCONAZOLE] |  | 11.6 | 6.7 | 0.6 | 0.1 | 
CNCCC(Oc1ccc(C(F)(F)F)cc1)c1ccccc1 (stereo unspecified) [FLUOXETINE] | 70 |  |  |  |  | 
O=C(CCCN1CCC(O)(c2ccc(Cl)cc2)CC1)c1ccc(F)cc1 [HALOPERIDOL] | 60 | 4.1 | 1.8 | 0.4 |  | 0.4
Cc1ccc(NC(=O)c2ccc(CN3CCN(C)CC3)cc2)cc1Nc1nccc(-c2cccnc2)n1 [IMATINIB] | 67 |  |  |  |  | 
CCc1c2c(nc3ccc(OC(=O)N4CCC(N5CCCCC5)CC4)cc13)-c1cc3c(c(=O)n1C2)COC(=O)[C@]3(O)CC [IRINOTECAN] |  | 1.4 | 5.1 | 3.7 |  | 2.7
CC(=O)N1CCN(c2ccc(OCC3COC(Cn4ccnc4)(c4ccc(Cl)cc4Cl)O3)cc2)CC1 (stereo unspecified) [KETOCONAZOLE] | 90 | 18 | 5.1 |  |  | 

SMILES | Fa (clinical) [%] | Papp A→B at 2 h, 10 µM (in vitro [1]) [×10⁻⁶ cm/s] | Papp B→A at 2 h, 10 µM (in vitro [2]) [×10⁻⁶ cm/s] | efflux ratio at 2 h, 10 µM (in vitro [3]) | efflux ratio at 2 h, 10 µM (P-gp; Caco-2) | efflux ratio at 2 h, 10 µM (P-gp; Caco-2, with LY335979 1 uM)
CN(C)C(=O)C(CCN1CCC(O)(c2ccc(Cl)cc2)CC1)(c1ccccc1)c1ccccc1 [LOPERAMIDE] |  | 5.8 | 7.6 |  |  | 
C[C@H]1C[C@@H]2[C@H]([C@@H](O)C[C@@]3(C)[C@H]2CC[C@]3(O)C(=O)CO)[C@@]2(C)C=CC(=O)C=C12 [METHYLPREDNISOLONE] |  | 8.5 | 24.6 | 2.9 |  | 0.8
O=C1c2c(O)ccc(O)c2C(=O)c2c(NCCNCCO)ccc(NCCNCCO)c21 [MITOXANTRONE] | 85 | 26.3 | 12.5 | 0.5 | 0.6 | 
COC(=O)C1=C(C)NC(C)=C(C(=O)OCCN(C)Cc2ccccc2)C1c1cccc([N+](=O)[O-])c1 (stereo unspecified) [NICARDIPINE] | 100 | 5 | 2.6 | 0.5 | 0.5 | 
O=C1CN(/N=C/c2ccc([N+](=O)[O-])o2)C(=O)N1 [NITROFURANTOIN] | 100 | 1.1 | 11.1 | 10.4 |  | 
CCn1cc(C(=O)O)c(=O)c2cc(F)c(N3CCNCC3)cc21 [NORFLOXACIN] | 40 | 1.9 | 3.3 | 1.7 | 1.7 | 
O=C(O)c1cc(/N=N/c2ccc(O)c(C(=O)O)c2)ccc1O [OLSALAZINE] |  | 0.9 | 3.1 | 3.7 |  | 1.9
CC(=O)O[C@H]1C(=O)[C@@]2(C)[C@H]([C@H](OC(=O)c3ccccc3)[C@]3(O)C[C@H](OC(=O)[C@H](O)[C@@H](NC(=O)c4ccccc4)c4ccccc4)C(C)=C1C3(C)C)[C@]1(OC(C)=O)CO[C@@H]1C[C@@H]2O [PACLITAXEL] | 6 |  |  |  |  | 
COc1cc2nc(N3CCN(C(=O)c4ccco4)CC3)nc(N)c2cc1OC [PRAZOSIN] | 100 | 6.2 | 11.1 | 1.8 |  | 
COC(=O)[C@H]1[C@H]2C[C@@H]3c4[nH]c5cc(OC)ccc5c4CCN3C[C@H]2C[C@@H](OC(=O)c2cc(OC)c(OC)c(OC)c2)[C@@H]1OC [RESERPINE] | 50 | 3.6 | 2.3 | 0.6 | 0.7 | 
CC(C)c1nc(CN(C)C(=O)N[C@H](C(=O)N[C@@H](Cc2ccccc2)C[C@H](O)[C@H](Cc2ccccc2)NC(=O)OCc2cncs2)C(C)C)cs1 [RITONAVIR] | 66 | 2.1 | 9.2 |  |  | 
CC(C)c1nc(N(C)S(C)(=O)=O)nc(-c2ccc(F)cc2)c1/C=C/[C@@H](O)C[C@@H](O)CC(=O)O [ROSUVASTATIN] | 20 | 0.5 | 7.5 | 15.9 |  | 
C=CC[C@@H]1/C=C(\C)C[C@H](C)C[C@H](OC)[C@H]2O[C@@](O)(C(=O)C(=O)N3CCCC[C@H]3C(=O)O[C@H](/C(C)=C/[C@@H]3CC[C@@H](O)[C@H](OC)C3)[C@H](C)[C@@H](O)CC1=O)[C@H](C)C[C@@H]2OC [TACROLIMUS ANHYDROUS] | 25 | 1 | 3.6 | 3.5 |  | 0.7
COc1cc([C@@H]2c3cc4c(cc3[C@@H](O[C@@H]3O[C@@H]5CO[C@@H](c6cccs6)O[C@H]5[C@H](O)[C@H]3O)[C@H]3COC(=O)[C@H]23)OCO4)cc(OC)c1O [TENIPOSIDE] | 0 | 0.9 | 8.8 | 9.8 |  | 2.1
CN1CCN(CCCN2c3ccccc3Sc3ccc(C(F)(F)F)cc32)CC1 [TRIFLUOPERAZINE] | 16 | 0.5 | 1 | 1.9 | 0.9 | 
COc1cc(Cc2cnc(N)nc2N)cc(OC)c1OC [TRIMETHOPRIM] |  | 15.9 | 11.2 | 0.7 | 0.4 | 
Cc1cn([C@H]2C[C@H](N=[N+]=[N-])[C@@H](CO)O2)c(=O)[nH]c1=O [ZIDOVUDINE] | 90 | 6.7 | 9.6 | 1.4 |  | 
